Tests used:
[1] = biological target: LTK (Homo sapiens, UniProt P29376); assay: kinase panel; type: biochemical
[2] = biological target: MST2 (Homo sapiens, UniProt Q13188); assay: kinase panel; type: biochemical
[3] = biological target: NEK6 (Homo sapiens, UniProt Q9HC98); assay: kinase panel; type: biochemical
[4] = biological target: PLK3 (Homo sapiens, UniProt Q9H4B4); assay: kinase panel; type: biochemical
[5] = biological target: Alpha1A adrenergic (Homo sapiens, UniProt P35348); assay: Alpha1A adrenergic calcium flux assay; type: cell-based
[6] = biological target: PLK4 (Homo sapiens, UniProt O00444); assay: kinase panel; type: biochemical
[7] = biological target: Melanocortin MC3 receptor (Homo sapiens, UniProt P41968); assay: Melanocortin MC3 receptor binding assay
[8] = biological target: EPH-B2 (Homo sapiens, UniProt P29323); assay: kinase panel; type: biochemical
[9] = biological target: NEK9 (Homo sapiens, UniProt Q8TD19); assay: kinase panel; type: biochemical
[10] = biological target: AURORA-B (Homo sapiens, UniProt Q96GD4); assay: kinase panel; type: biochemical
AURORA-B, sequence (Q96GD4 whole entry): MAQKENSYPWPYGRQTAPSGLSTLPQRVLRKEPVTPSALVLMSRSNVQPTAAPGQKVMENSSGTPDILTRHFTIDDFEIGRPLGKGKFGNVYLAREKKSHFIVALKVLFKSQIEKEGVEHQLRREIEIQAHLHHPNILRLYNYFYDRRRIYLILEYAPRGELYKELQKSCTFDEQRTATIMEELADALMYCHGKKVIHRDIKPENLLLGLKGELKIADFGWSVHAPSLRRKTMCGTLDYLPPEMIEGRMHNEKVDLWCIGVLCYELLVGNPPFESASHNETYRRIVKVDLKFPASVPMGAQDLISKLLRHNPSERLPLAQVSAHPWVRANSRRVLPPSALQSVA

[11] = biological target: TAOK2 (Homo sapiens, UniProt Q9UL54); assay: kinase panel; type: biochemical
[12] = biological target: FYN (Homo sapiens, UniProt P06241); assay: kinase panel; type: biochemical
[13] = biological target: MKNK1 (Homo sapiens, UniProt Q9BUB5); assay: kinase panel; type: biochemical
[14] = biological target: PKC-ALPHA (Homo sapiens, UniProt P17252); assay: kinase panel; type: biochemical
[15] = biological target: PRKG1 (Homo sapiens, UniProt Q13976); assay: kinase panel; type: biochemical
[16] = biological target: STK16 (Homo sapiens, UniProt O75716); assay: kinase panel; type: biochemical
[17] = biological target: EPH-B4 (Homo sapiens, UniProt P54760); assay: kinase panel; type: biochemical
[18] = biological target: ROS (Homo sapiens, UniProt P08922); assay: kinase panel; type: biochemical
[19] = biological target: EPH-B3 (Homo sapiens, UniProt P54753); assay: kinase panel; type: biochemical
[20] = biological target: Beta 1 adrenergic receptor (Homo sapiens, UniProt P08588); assay: Beta 1 adrenergic receptor assay; type: binding
[21] = biological target: CDK4-CYCLIND (Homo sapiens, UniProt P11802); assay: kinase panel; type: biochemical
CDK4-CYCLIND, sequence (P11802 whole entry): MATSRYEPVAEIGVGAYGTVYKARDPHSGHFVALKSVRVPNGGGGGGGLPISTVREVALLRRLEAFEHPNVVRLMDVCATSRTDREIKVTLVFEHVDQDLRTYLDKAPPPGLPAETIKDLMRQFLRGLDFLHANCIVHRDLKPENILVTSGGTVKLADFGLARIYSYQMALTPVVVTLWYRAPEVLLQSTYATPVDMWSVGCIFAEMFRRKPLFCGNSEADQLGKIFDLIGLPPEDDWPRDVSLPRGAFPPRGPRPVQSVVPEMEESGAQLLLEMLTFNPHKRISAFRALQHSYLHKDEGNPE
CDK4-CYCLIND, sequence (P24385 whole entry partner): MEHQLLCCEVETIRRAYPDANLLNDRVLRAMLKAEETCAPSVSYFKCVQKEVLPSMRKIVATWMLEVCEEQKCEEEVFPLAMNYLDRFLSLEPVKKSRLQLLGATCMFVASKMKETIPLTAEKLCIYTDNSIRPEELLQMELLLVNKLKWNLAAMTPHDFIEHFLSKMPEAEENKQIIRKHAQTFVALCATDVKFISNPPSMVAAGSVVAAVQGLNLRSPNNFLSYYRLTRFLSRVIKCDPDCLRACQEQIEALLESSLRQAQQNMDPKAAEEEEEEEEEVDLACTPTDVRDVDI

[22] = biological target: NDR1 (Homo sapiens, UniProt Q15208); assay: kinase panel; type: biochemical
NDR1, sequence (Q15208 whole entry): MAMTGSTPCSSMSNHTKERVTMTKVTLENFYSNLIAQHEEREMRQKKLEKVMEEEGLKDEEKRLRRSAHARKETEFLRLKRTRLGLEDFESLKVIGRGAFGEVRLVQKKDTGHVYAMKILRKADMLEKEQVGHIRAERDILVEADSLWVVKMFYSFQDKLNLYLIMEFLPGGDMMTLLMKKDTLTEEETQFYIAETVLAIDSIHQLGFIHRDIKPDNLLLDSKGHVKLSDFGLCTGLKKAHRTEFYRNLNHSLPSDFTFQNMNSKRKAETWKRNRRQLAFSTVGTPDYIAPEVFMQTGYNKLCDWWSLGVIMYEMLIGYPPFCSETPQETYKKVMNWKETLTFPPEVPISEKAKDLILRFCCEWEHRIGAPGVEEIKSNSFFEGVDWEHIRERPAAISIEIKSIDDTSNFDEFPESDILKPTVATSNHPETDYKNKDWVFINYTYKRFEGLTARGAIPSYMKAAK

[23] = biological target: PHK-GAMMA1 (Homo sapiens, UniProt Q16816); assay: kinase panel; type: biochemical
[24] = biological target: PYK2 (Homo sapiens, UniProt Q14289); assay: kinase panel; type: biochemical
[25] = biological target: MAP4K2 (Homo sapiens, UniProt Q12851); assay: kinase panel; type: biochemical
[26] = biological target: TSSK2 (Homo sapiens, UniProt Q96PF2); assay: kinase panel; type: biochemical
TSSK2, sequence (Q96PF2 whole entry): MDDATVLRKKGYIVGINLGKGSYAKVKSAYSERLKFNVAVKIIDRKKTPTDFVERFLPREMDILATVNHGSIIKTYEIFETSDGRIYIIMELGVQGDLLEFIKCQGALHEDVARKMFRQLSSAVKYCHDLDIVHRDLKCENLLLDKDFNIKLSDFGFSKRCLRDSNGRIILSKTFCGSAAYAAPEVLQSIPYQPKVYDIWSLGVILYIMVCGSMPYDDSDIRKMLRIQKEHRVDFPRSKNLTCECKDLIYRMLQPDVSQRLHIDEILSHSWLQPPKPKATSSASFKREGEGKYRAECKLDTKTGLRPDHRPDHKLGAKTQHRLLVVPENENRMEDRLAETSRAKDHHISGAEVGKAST

[27] = biological target: FGFR1 (Homo sapiens, UniProt P11362); assay: kinase panel; type: biochemical
[28] = biological target: Adenosine 2A receptor (Homo sapiens, UniProt P29274); assay: Adenosine 2A receptor binding assay
[29] = biological target: EPH-A8 (Homo sapiens, UniProt P29322); assay: kinase panel; type: biochemical
[30] = biological target: CAMK4 (Homo sapiens, UniProt Q16566); assay: kinase panel; type: biochemical
[31] = biological target: CRAF (Homo sapiens, UniProt P04049); assay: kinase panel; type: biochemical
[32] = biological target: MSSK1 (Homo sapiens, UniProt Q9UPE1); assay: kinase panel; type: biochemical
MSSK1, sequence (Q9UPE1 whole entry): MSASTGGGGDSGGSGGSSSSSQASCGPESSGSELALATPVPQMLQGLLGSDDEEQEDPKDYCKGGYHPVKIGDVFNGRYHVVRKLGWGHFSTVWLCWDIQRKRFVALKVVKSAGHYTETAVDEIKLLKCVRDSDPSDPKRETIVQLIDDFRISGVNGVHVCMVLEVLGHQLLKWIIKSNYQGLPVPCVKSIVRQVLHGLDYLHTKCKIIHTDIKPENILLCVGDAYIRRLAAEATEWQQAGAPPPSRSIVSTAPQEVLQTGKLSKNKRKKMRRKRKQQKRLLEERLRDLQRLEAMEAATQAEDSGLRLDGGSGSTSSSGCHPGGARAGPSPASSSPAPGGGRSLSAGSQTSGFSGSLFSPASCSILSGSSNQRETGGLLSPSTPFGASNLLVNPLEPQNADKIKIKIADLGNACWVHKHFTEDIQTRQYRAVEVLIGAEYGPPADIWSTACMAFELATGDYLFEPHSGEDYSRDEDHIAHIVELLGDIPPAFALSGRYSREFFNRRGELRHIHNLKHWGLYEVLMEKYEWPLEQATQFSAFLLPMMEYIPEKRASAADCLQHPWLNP

[33] = biological target: DYRK1B (Homo sapiens, UniProt Q9Y463); assay: kinase panel; type: biochemical
[34] = biological target: AURORA-A (Homo sapiens, UniProt O14965); assay: kinase panel; type: biochemical
[35] = biological target: EPH-A3 (Homo sapiens, UniProt P29320); assay: kinase panel; type: biochemical
EPH-A3, sequence (P29320 21-983): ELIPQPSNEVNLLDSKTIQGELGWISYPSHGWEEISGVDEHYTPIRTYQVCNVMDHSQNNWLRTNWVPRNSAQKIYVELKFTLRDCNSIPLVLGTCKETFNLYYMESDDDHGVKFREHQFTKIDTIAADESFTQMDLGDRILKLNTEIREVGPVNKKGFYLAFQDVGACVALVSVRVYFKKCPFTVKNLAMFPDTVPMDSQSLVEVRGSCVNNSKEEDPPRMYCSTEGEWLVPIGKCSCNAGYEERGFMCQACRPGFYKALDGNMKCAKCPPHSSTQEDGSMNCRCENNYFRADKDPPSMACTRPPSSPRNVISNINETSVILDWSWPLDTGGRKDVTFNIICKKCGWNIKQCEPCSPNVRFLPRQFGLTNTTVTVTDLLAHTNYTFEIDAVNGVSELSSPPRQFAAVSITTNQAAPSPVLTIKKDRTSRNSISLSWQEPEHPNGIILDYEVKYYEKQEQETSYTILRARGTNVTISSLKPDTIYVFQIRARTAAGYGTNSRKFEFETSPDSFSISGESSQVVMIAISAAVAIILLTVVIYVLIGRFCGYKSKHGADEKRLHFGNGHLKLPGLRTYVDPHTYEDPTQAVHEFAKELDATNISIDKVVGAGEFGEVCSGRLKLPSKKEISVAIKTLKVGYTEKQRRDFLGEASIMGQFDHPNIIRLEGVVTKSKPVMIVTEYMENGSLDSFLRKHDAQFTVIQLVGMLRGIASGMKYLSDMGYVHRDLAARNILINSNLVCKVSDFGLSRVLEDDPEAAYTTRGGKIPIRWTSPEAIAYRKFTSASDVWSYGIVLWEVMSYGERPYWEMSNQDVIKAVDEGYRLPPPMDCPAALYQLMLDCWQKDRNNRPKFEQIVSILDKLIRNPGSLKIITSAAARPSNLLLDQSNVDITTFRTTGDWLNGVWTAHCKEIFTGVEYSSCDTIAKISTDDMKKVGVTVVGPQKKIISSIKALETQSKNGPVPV

[36] = biological target: PKC-ETA (Homo sapiens, UniProt P24723); assay: kinase panel; type: biochemical
[37] = biological target: FLT-1 (Homo sapiens, UniProt P17948); assay: kinase panel; type: biochemical
[38] = biological target: CDK3-CYCLINE (Homo sapiens, UniProt Q00526); assay: kinase panel; type: biochemical
[39] = biological target: RSK2 (Homo sapiens, UniProt P51812); assay: kinase panel; type: biochemical
RSK2, sequence (P51812 whole entry): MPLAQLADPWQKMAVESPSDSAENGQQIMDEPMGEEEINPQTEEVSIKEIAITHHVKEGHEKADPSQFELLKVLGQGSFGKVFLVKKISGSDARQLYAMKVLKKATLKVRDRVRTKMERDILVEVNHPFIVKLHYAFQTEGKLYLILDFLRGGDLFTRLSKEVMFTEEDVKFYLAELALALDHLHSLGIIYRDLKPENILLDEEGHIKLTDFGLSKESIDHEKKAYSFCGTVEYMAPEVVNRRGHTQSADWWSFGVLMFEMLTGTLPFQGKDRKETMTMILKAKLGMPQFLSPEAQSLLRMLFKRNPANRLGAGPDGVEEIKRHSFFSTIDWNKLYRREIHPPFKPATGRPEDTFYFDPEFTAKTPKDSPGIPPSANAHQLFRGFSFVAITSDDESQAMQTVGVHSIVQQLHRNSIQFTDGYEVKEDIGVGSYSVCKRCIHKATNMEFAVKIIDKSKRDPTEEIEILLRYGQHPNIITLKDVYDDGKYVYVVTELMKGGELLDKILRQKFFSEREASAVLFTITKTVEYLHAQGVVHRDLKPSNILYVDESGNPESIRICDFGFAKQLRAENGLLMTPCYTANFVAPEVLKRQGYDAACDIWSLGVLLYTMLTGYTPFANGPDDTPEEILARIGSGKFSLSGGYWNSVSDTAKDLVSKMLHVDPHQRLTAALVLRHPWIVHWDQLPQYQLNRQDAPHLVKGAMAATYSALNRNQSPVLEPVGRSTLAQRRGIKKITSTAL

[40] = biological target: TYK2 (Homo sapiens, UniProt P29597); assay: kinase panel; type: biochemical
[41] = biological target: PI3K-DELTA (Homo sapiens, UniProt O00329); assay: kinase panel; type: biochemical
[42] = biological target: TRKC (Homo sapiens, UniProt Q16288); assay: kinase panel; type: biochemical
[43] = biological target: RON (Homo sapiens, UniProt Q04912); assay: kinase panel; type: biochemical
[44] = biological target: JNK2 (Homo sapiens, UniProt P45984); assay: kinase panel; type: biochemical

LTK, sequence (P29376 17-864): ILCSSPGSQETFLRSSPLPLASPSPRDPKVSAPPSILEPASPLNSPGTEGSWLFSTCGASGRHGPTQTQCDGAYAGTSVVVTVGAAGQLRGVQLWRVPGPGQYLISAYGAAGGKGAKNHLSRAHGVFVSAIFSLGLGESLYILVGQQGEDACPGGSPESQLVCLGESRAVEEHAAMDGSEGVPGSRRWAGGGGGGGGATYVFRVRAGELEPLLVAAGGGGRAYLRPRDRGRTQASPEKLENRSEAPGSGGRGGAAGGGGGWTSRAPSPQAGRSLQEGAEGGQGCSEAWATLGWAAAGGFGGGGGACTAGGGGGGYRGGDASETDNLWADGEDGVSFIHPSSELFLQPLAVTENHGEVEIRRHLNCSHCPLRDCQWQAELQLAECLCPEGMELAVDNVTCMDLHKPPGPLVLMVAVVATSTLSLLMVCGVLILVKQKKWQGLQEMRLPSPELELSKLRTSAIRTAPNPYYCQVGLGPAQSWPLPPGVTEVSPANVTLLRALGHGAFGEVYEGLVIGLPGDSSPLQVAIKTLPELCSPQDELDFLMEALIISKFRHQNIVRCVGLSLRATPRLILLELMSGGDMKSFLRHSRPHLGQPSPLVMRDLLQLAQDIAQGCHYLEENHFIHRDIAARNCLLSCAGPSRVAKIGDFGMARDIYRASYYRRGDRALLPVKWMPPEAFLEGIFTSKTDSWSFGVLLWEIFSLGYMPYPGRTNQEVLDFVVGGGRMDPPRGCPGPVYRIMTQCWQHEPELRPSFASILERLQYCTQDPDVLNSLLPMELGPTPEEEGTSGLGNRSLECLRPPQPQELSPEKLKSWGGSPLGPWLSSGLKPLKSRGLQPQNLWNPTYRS

O=C(Nc1nccs1)C(c1cc(F)ccc1O)N1Cc2ccccc2C1=O (centres unmarked) [EAI045, 2-(5-fluoro-2-hydroxyphenyl)-2-(1-oxo-2,3-dihydro-1H-isoindol-2-yl)-N-(1,3-thiazol-2-yl)acetamide]
inhibition at 1 µM [1]: 1% | inhibition at 1 µM [2]: 0% | inhibition at 1 µM [3]: 0% | inhibition at 1 µM [4]: 5% | IC50 [5]: > 30 µM | inhibition at 1 µM [6]: 0% | IC50 [7]: > 30 µM | inhibition at 1 µM [8]: 0% | inhibition at 1 µM [9]: 0% | inhibition at 1 µM [10]: 4% | inhibition at 1 µM [11]: 0% | inhibition at 1 µM [12]: 0% | inhibition at 1 µM [13]: 0% | inhibition at 1 µM [14]: 0% | inhibition at 1 µM [15]: 0% | inhibition at 1 µM [16]: 0% | inhibition at 1 µM [17]: 0% | inhibition at 1 µM [18]: 1% | inhibition at 1 µM [19]: 0% | IC50 [20]: > 30 µM | inhibition at 1 µM [21]: 0% | inhibition at 1 µM [22]: 2% | inhibition at 1 µM [23]: 0% | inhibition at 1 µM [24]: 4% | inhibition at 1 µM [25]: 0% | inhibition at 1 µM [26]: 0% | inhibition at 1 µM [27]: 5% | IC50 [28]: > 30 µM | inhibition at 1 µM [29]: 0% | inhibition at 1 µM [30]: 1% | inhibition at 1 µM [31]: 0% | inhibition at 1 µM [32]: 0% | inhibition at 1 µM [33]: 2% | inhibition at 1 µM [34]: 0% | inhibition at 1 µM [35]: 1% | inhibition at 1 µM [36]: 0% | inhibition at 1 µM [37]: 8% | inhibition at 1 µM [38]: 0% | inhibition at 1 µM [39]: 0% | inhibition at 1 µM [40]: 0% | inhibition at 1 µM [41]: 0% | inhibition at 1 µM [42]: 4% | inhibition at 1 µM [43]: 0% | inhibition at 1 µM [44]: 0%

From PMC4929832 (Nature, 2016)
